According to PubChem BioAssay (NCI):
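Dose response: 5 concentrations. Exposure: 48 h. Format: 96-well plates. Endpoint: linear interpolation; highest concentration if not reached. The concentration for full growth arrest is given as TGI.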

Assays:
Assay in all cases: growth of human tumour cells (NCI), 48 h
SR leukemia = test system: SR leukemia
HL-60(TB) leukemia = test system: HL-60(TB) leukemia
OVCAR-3 ovarian = test system: OVCAR-3 ovarian
LOX IMVI melanoma = test system: LOX IMVI melanoma
TK-10 renal = test system: TK-10 renal
COLO 205 colon = test system: COLO 205 colon
MDA-MB-231 breast = test system: MDA-MB-231 breast
CCRF-CEM leukemia = test system: CCRF-CEM leukemia
SNB-75 CNS = test system: SNB-75 CNS
HOP-92 NSCLC = test system: HOP-92 NSCLC
RPMI-8226 leukemia = test system: RPMI-8226 leukemia

Row | SMILES | TGI (SR leukemia) | TGI (HL-60(TB) leukemia) | TGI (OVCAR-3 ovarian) | TGI (LOX IMVI melanoma) | TGI (TK-10 renal) | TGI (COLO 205 colon) | TGI (MDA-MB-231 breast) | TGI (CCRF-CEM leukemia) | TGI (SNB-75 CNS) | TGI (HOP-92 NSCLC) | TGI (RPMI-8226 leukemia)
1 | C=CC(C)(C)c1cc([C@@H]2COc3cc(O)ccc3C2=O)c(O)c(O)c1OC | > 100 µM | 73.3 µM | 29.3 µM | 66.8 µM | > 100 µM | 63 µM | 57.5 µM | > 100 µM | 56.6 µM | 49.4 µM | –
2 | Cc1ccc(SC[C@@]2(C(F)F)NC(=O)NC2=O)cc1 | > 100 µM | > 100 µM | > 100 µM | > 100 µM | > 100 µM | > 100 µM | > 100 µM | > 100 µM | > 100 µM | > 100 µM | > 100 µM
3 | CC(NNC(=O)c1ccncc1)c1ccc(Cl)c(Cl)c1 (stereo not drawn) | > 100 µM | > 100 µM | > 100 µM | > 100 µM | > 100 µM | > 100 µM | > 100 µM | > 100 µM | > 100 µM | > 100 µM | > 100 µM
4 | ONC1=Nc2ccccc2OCc2cc(Br)c(Br)cc2COc2ccccc2N=C1NO | 15.2 µM | 25 µM | > 48.1 µM | 45.1 µM | > 59.6 µM | 21.5 µM | 35.5 µM | > 34.1 µM | > 54.7 µM | 32 µM | 43.4 µM
5 | CC1=C[C@@H](C)C[C@]2(C)CC[C@H](O2)[C@]23CC[C@](C)(C[C@H](O2)[C@@H]2O[C@@](C)(CC2=O)[C@@H](O)[C@H]2CC[C@@]4(CCC[C@@H](O4)[C@H](C)C(=O)O[C@H]4C[C@H]([C@]5(O)OCC[C@H](C)[C@@H]5O)O[C@H]4C=C1)O2)O3 | > 10 µM | > 10 µM | 0.02 µM | > 10 µM | 0.0277 µM | 0.00188 µM | 0.238 µM | – | – | 0.00517 µM | –
6 | CNC(=S)N/N=C(\C)c1nc2ncccc2[nH]1 | > 100 µM | 52.8 µM | 75.5 µM | > 100 µM | > 96.1 µM | > 100 µM | > 100 µM | > 100 µM | > 100 µM | > 100 µM | > 100 µM
7 | O=C1CCC2(O)C3Cc4ccc(Oc5nnnn5-c5ccccc5)c5c4C2(CCN3CC2CC2)C1O5 (stereo not drawn) | 42.9 µM | – | > 100 µM | 84.6 µM | > 100 µM | 32.9 µM | > 100 µM | 47.4 µM | > 100 µM | > 100 µM | > 100 µM
8 | CN(C)Cc1cc(C(=O)/C=C/c2cccc(Cl)c2)cc(CN(C)C)c1O | 6.93 µM | 4.58 µM | 9.21 µM | 10.9 µM | 22 µM | 3.79 µM | 8.87 µM | 8.25 µM | 6.43 µM | 18.2 µM | 7.73 µM
9 | C[C@@H]1CC[C@@H](C)[C@](C)(CCc2ccoc2)C/C=C\C=C/1C(=O)O | > 50 µM | > 50 µM | > 50 µM | > 50 µM | > 50 µM | > 50 µM | > 50 µM | > 50 µM | > 50 µM | > 50 µM | –
10 | COc1ccc2c(c1OC)C(=O)O[C@@H]2[C@H]1c2cc3c(cc2CCN1C)OCO3 | > 100 µM | > 100 µM | > 100 µM | > 100 µM | > 100 µM | > 100 µM | > 100 µM | – | > 100 µM | > 100 µM | > 100 µM
